According to PMC12544700, “Identification of a Small Secretoneurin Derivative That Inhibits CaMKIIδ Activity” (Journal of Cellular and Molecular Medicine, 2025):
Peptide text beside a SMILES is read from it. * marks the point of attachment. Biotin = O=C1N[C@H]2[C@H](CS[C@H]2CCCCC(=O)*)N1; Ahx = NCCCCCC(=O)O

Test system: adult rat cardiomyocytes
Assay: Ca2+ imaging (sparks, waves, transients) with ISO stimulation
Type: cell-based
Details: ISO 100 nM
Procedure: Male Wistar rats (Janvier, France) weighing ~300 g were sedated in an anaesthesia chamber by inhalation of 5% isoflurane and 95% O2. The heart was excised under deep surgical anaesthesia, cannulated, and then retrogradely perfused through the aorta on a modified Langendorff setup with cell isolation solution containing (in mM, pH adjusted to 7.4, 37°C): NaCl 130, Hepes 25, D‐glucose 22, KCl 5.4, MgCl2 0.5, NaH2PO4 0.4, and a flow rate of 4 mL/min. After the heart was cleaned of blood, collagenase type II (2 mg/mL, Worthington Biochemical Corp, Lakewood, NJ, USA) was added to the perfusate, and the hearts digested for ~10 min. Following digestion, hearts were cut down, and the left ventricle dissected into pieces, which were transferred into 10 mL cell isolation solution with 250 μL BSA (40 mg/mL) and ~0.2 mg Deoxyribonuclease I (Worthington Biochemical Corporation, Lakewood, NJ, USA). After light agitation (~2 min), the supernatant was filtered (200 μm nylon mesh), and isolated cardiomyocytes were allowed to sediment by gravity. The cardiomyocytes were then washed in isolation buffer containing 1 mg/mL BSA, with a stepwise increase in Ca^2+ concentration up to 0.2 mM. Animal experiments were approved by the Norwegian Research Authority (FOTS ID: 30114). Adult rat cardiomyocytes were treated with 10 μM of SN, SN‐db‐short or scram in 0.2 mM Ca^2+ cell isolation solution for 1 h. These loading concentrations are higher than those used in our previous studies of SN, where we had sought to examine endogenous, circulating levels, rather than potentially therapeutic levels applied exogenously. […] Ca^2+ transients were recorded in linescan mode using a Zeiss LSM 7 Live confocal microscope (Jena, Germany), at a frame rate of 1.5 ms and a pixel size of 0.16 μm. These recordings were normalised to resting fluorescence values to create F/F0 images and assess Ca^2+ transient amplitude. The rate of Ca^2+ transient decline was assessed by measurements of the decay time constant (Tau). Spontaneous sparks and waves were measured during a 9 s pause in the electrical excitation. […]

CC(C)C[C@H](NC(=O)[C@H](CCC(=O)O)NC(=O)[C@H](CCC(N)=O)NC(=O)[C@H](Cc1ccccc1)NC(=O)[C@H](Cc1ccccc1)NC(=O)[C@H](CO)NC(=O)[C@H](CCC(=O)O)NC(=O)[C@H](Cc1ccccc1)NC(=O)[C@@H](NC(=O)[C@H](C)NC(=O)[C@H](CC(C)C)NC(=O)[C@H](CO)NC(=O)[C@H](CCC(N)=O)NC(=O)[C@@H]1CCCN1C(=O)[C@@H](NC(=O)[C@H](Cc1ccc(O)cc1)NC(=O)[C@H](CCC(N)=O)NC(=O)[C@H](CCC(=O)O)NC(=O)CCCCCNC(=O)CCCC[C@@H]1SC[C@@H]2NC(=O)N[C@@H]21)[C@@H](C)O)[C@@H](C)O)C(=O)NCC(=O)N[C@@H](CCCCN)C(=O)O [SN‐db‐short] ({Biotin-Ahx}-EQYTPQSLATFESFFQELGK-OH; N-terminus and C-terminus assumed)
ISO-induced increase of Ca2+ transient amplitude and acceleration of Ca2+ transient decay (10 μM peptide 1 h, field stimulation 1 Hz, Figure 5B–D, n = 22–73, 3–6 rats): significantly attenuated
Ca2+ spark incidence under ISO (10 μM peptide 1 h pre-treatment, 9 s pause after 1 Hz pacing, Figure 4D, n = 35–85 cells from 3 to 6 rats): strong reduction
Ca2+ wave incidence under ISO (10 μM peptide 1 h pre-treatment, 9 s pause after 1 Hz pacing, Figure 4E, n = 35–66 cells from 3 to 5 rats): strong reduction
